The values below come from patent US8071586B2, “Heterocyclyl compounds” (Hoffmann-La Roche Inc., priority 2008, dated 2011).

The target of this experiment is T1, human chemokine receptor 2 isoform B (CCR2) (Homo sapiens, UniProt P41597).
T1 sequence (P41597 1-360 isoform P41597-2): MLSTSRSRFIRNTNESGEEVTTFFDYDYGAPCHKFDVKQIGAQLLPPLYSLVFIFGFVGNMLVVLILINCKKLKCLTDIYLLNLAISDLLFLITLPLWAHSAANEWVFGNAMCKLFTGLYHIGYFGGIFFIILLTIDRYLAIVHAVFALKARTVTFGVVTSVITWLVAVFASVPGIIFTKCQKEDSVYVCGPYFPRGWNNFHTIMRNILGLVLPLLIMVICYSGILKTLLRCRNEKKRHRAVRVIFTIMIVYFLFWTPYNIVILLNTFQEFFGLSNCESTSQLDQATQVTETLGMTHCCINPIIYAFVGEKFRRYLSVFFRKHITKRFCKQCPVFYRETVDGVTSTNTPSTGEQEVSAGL
Briefly: Calcium mobilization assay (FLIPR, MCP-1 stimulated CHOK1-CCR2B-A5 cells). The format is cell-based. Particulars: Ca mobilisation assay, CCR2 antagonist activity, inhibition of MCP-1 induced calcium increase. As for the experimental part: Calcium Mobilization Assay
CHOK1-CCR2B-A5 cells (from Euroscreen) stably overexpressing the human chemokine receptor 2 isoform B were cultured in Nutrient Hams F12 medium supplemented with 5% FBS, 100 U/ml penicillin, 100 μg/ml streptomycin, 400 μg/ml G418 and 5 μg/ml puromycin.
For the assay cells were grown overnight in 384-well black clear flat bottom polystyrene plates (Costar) at 37° C. at 5% CO2. After washing with DMEM, 20 mM Hepes, 2.5 mM probenecid, 0.1% BSA (DMEM assay buffer) cells were loaded with 4 μM Fluo-4 in the same DMEM assay buffer for 2 hours at 30° C. Excess dye was removed and cells were washed with DMEM assay buffer. 384-well compound plates were prepared with DMEM assay buffer/0.5% DMSO with or without various concentrations of test compounds. Usually compounds were tested for agonist and antagonist activity.
Test compounds were added to the assay plate and agonist activity was monitored as fluorescence for 80 seconds with a FLIPR (488 nm excitation; 510-570 nm emission; Molecular Devices). After 20-30 min. of incubation at 30° C., […] MCP-1 (R&D; Roche) was added and fluorescence was monitored again for 80 seconds. Increases in intracellular calcium are reported as maximum fluorescence after agonist exposure minus basal fluorescence before exposure. Antagonist activity is indicated as inhibitor concentration required for 50% inhibition of specific calcium increases.
For orientation: Calcium assays in cells follow changes in intracellular calcium, usually with a dye or a luminescent sensor.
For `CC(C)OC(=O)OC[C@H](CCN1CCC2(CC2)[C@H](O)C1)N1CCN(C(=O)Nc2ccc(Cl)c(Cl)c2)[C@@H](C)C1=O` [Example 113, Carbonic acid (S)-2-[(S)-4-(3,4-dichloro-phenylcarbamoyl)-3-methyl-2-oxo-piperazin-1-yl]-4-((S)-4-hydroxy-6-aza-spiro[2.5]oct-6-yl)-butyl ester isopropyl ester], the IC50 was found to be 1 nM.

For the compound `C[C@H]1C(=O)N(CCCN2CCC3(CC3)[C@H](O)C2)CCN1C(=O)Nc1ccc(F)c(Cl)c1` [Example 70, (S)-4-[3-((S)-4-Hydroxy-6-aza-spiro[2.5]oct-6-yl)-propyl]-2-methyl-3-oxo-piperazine-1-carboxylic acid (3-chloro-4-fluoro-phenyl)-amide], the 50% inhibitory concentration (IC50) worked out at 4 nM.

Take `COCC(CCN1CCC2(CC2)[C@H](O)C1)N1CCN(C(=O)Nc2ccc(Cl)c(Cl)c2)CCC1=O` (stereo partly drawn) [Example 55, (R,S)-4-[3-((S)-4-Hydroxy-6-aza-spiro[2.5]oct-6-yl)-1-methoxymethyl-propyl]-5-oxo-[1,4]diazepane-1-carboxylic acid (3,4-dichloro-phenyl)-amide]: the IC50 came to 4 nM.

For `C[C@H]1C(=O)N(CCCN2CCC3(CC3)[C@H](O)C2)CCN1C(=S)Nc1ccc(Cl)c(Cl)c1` [Example 71, (S)-4-[3-((S)-4-Hydroxy-6-aza-spiro[2.5]oct-6-yl)-propyl]-2-methyl-3-oxo-piperazine-1-carbothioic acid (3,4-dichloro-phenyl)-amide], the IC50 was 2 nM.

For the compound `O=C1CCN(C(=S)Nc2ccc(Cl)c(Cl)c2)CCN1CCCN1CCCCC1` [Example 18, 5-Oxo-4-(3-piperidin-1-yl-propyl)-[1,4]diazepane-1-carbothioic acid (3,4-dichloro-phenyl)-amide], the 50% inhibitory concentration (IC50) worked out at 600 nM.

For the compound `COC(=O)[C@H](CCN1CCC2(CC2)[C@H](O)C1)N1C[C@@H](C)N(C(=O)Nc2cccc(Cl)c2)CCC1=O` [Example 62, (S)-2-[(R)-4-(3-Chloro-phenylcarbamoyl)-3-methyl-7-oxo-[1,4]diazepan-1-yl]-4-((S)-4-hydroxy-6-aza-spiro[2.5]oct-6-yl)-butyric acid methyl ester], the IC50 came to 30 nM.

On to `C[C@H]1C(=O)N(C[C@H](O)CN2CCC3(CC3)[C@H](O)C2)CCN1C(=O)Nc1cccc(Cl)c1` [Example 123, (S)-4-[(R)-2-Hydroxy-3-((S)-4-hydroxy-6-aza-spiro[2.5]oct-6-yl)-propyl]-2-methyl-3-oxo-piperazine-1-carboxylic acid (3-chloro-phenyl)-amide], for which the IC50 was 248 nM.

In the case of `C[C@H]1C(=O)N([C@H](CO)CCN2CCC3(CC3)[C@H](O)C2)CCN1C(=O)Nc1cccc(Cl)c1` [Example 107, (S)-4-[(S)-3-((S)-4-Hydroxy-6-aza-spiro[2.5]oct-6-yl)-1-hydroxymethyl-propyl]-2-methyl-3-oxo-piperazine-1-carboxylic acid (3-chloro-phenyl)-amide], the IC50 turned out to be 2 nM.

Consider `COC[C@H](CCN1CCC2(CC2)[C@H](O)C1)N1CCN(C(=O)Nc2cccc(Cl)c2)[C@@H](C)C1=O` [Example 82, (S)-4-[(S)-3-((S)-4-Hydroxy-6-aza-spiro[2.5]oct-6-yl)-1-methoxymethyl-propyl]-2-methyl-3-oxo-piperazine-1-carboxylic acid (3-chloro-phenyl)-amide], for which the IC50 is 4 nM.

With `C[C@H]1C(=O)N(CCCCN2CCC3(CC3)[C@H](O)C2)CCN1C(=O)Nc1ccc(Cl)c(Cl)c1` [Example 90, (S)-4-[4-((S)-4-Hydroxy-6-aza-spiro[2.5]oct-6-yl)-butyl]-2-methyl-3-oxo-piperazine-1-carboxylic acid (3,4-dichloro-phenyl)-amide], the IC50 worked out at 1 nM.

On to `C[C@H]1C(=O)N(CCCN2CCC3(CC3)[C@H](O)C2)CCN1C(=O)Nc1ccc(Cl)c(Cl)c1` [Example 45, (S)-4-[3-((S)-4-Hydroxy-6-aza-spiro[2.5]oct-6-yl)-propyl]-2-methyl-3-oxo-piperazine-1-carboxylic acid (3,4-dichloro-phenyl)-amide], for which the IC50 is 2 nM.

Consider `COCC(CCN1CCC2(CC2)[C@H](O)C1)N1CCN(C(=O)NCc2ccc(Cl)c(Cl)c2)CCC1=O` (stereo partly drawn) [Example 6, (R,S)-4-[3-((S)-4-Hydroxy-6-aza-spiro[2.5]oct-6-yl)-1-methoxymethyl-propyl]-5-oxo-[1,4]diazepane-1-carboxylic acid 3,4-dichloro-benzylamide], for which the IC50 stood at 840 nM.

As to `COCC(CCN1CCC2(CC2)[C@H](O)C1)N1CC(C)N(C(=O)Nc2cccc(Cl)c2)CCC1=O` (stereo in doubt) [Example 65, (R)-4-[(S)-3-((S)-4-Hydroxy-6-aza-spiro[2.5]oct-6-yl)-1-methoxymethyl-propyl]-2-methyl-5-oxo-[1,4]diazepane-1-carboxylic acid (3-chloro-phenyl)-amide], the IC50 turned out to be 21 nM.

As to `COC(=O)OC[C@H](CCN1CCC2(CC2)[C@H](O)C1)N1CCN(C(=O)Nc2cccc(Cl)c2)[C@@H](C)C1=O` [Example 110, Carbonic acid (S)-2-[(S)-4-(3-chloro-phenylcarbamoyl)-3-methyl-2-oxo-piperazin-1-yl]-4-((S)-4-hydroxy-6-aza-spiro[2.5]oct-6-yl)-butyl ester methyl ester], the IC50 worked out at 5 nM.

For `C[C@H]1C(=O)N(CCCN2CCC3(CC3)[C@H](O)C2)CCN1C(=O)Nc1cccc(F)c1` [Example 73, (S)-4-[3-((S)-4-Hydroxy-6-aza-spiro[2.5]oct-6-yl)-propyl]-2-methyl-3-oxo-piperazine-1-carboxylic acid (3-fluoro-phenyl)-amide], the IC50 amounted to 21 nM.

As for `Cc1ccc(NC(=O)N2CCC(=O)N(CCCN3CCC4(CC4)[C@H](O)C3)C[C@H]2C)cc1C` [Example 61, (R)-4-[3-((S)-4-Hydroxy-6-aza-spiro[2.5]oct-6-yl)-propyl]-2-methyl-5-oxo-[1,4]diazepane-1-carboxylic acid (3,4-dimethyl-phenyl)-amide], the IC50 came to 210 nM.

In the case of `COCC(CCN1CCC2(CC2)[C@H](O)C1)N1CC(C)N(C(=O)Nc2cccc(C(F)(F)F)c2)CCC1=O` (stereo in doubt) [Example 66, (R)-4-[(S)-3-((S)-4-Hydroxy-6-aza-spiro[2.5]oct-6-yl)-1-methoxymethyl-propyl]-2-methyl-5-oxo-[1,4]diazepane-1-carboxylic acid (3-trifluoromethyl-phenyl)-amide], the IC50 was 33 nM.

On to `C[C@H]1CCN(CCCN2CCN(C(=O)Nc3ccc(Cl)c(Cl)c3)[C@@H](C)C2=O)C[C@H]1O` [Example 47, (S)-4-[3-((3S,4S)-3-Hydroxy-4-methyl-piperidin-1-yl)-propyl]-2-methyl-3-oxo-piperazine-1-carboxylic acid (3,4-dichloro-phenyl)-amide], for which the IC50 came out at 7 nM.

Regarding `C[C@H]1C(=O)N(CCCN2CCCCC2)CCN1C(=O)Nc1cccc(Cl)c1` [Example 35, (S)-2-Methyl-3-oxo-4-(3-piperidin-1-yl-propyl)-piperazine-1-carboxylic acid (3-chloro-phenyl)-amide], the IC50 turned out to be 940 nM.

On to `CC(C)C(=O)OC[C@H](CCN1CCC2(CC2)[C@H](O)C1)N1CCN(C(=O)Nc2ccc(Cl)c(Cl)c2)[C@@H](C)C1=O` [Example 115, Isobutyric acid (S)-2-[(S)-4-(3,4-dichloro-phenylcarbamoyl)-3-methyl-2-oxo-piperazin-1-yl]-4-((S)-4-hydroxy-6-aza-spiro[2.5]oct-6-yl)-butyl ester], for which the IC50 was 10 nM.

The term IC50 denotes the concentration at which inhibition is half-maximal.
